Entries after “also recorded” stand apart in the source; their conditions may differ.
How the values were obtained:
[1] = ABTS radical scavenging assay; format: biochemical; conditions: for radical scavenging effect (in words): 1 mg/mL, structure-activity discussion of the ABTS/DPPH results; for ABTS scavenging activity: 1 mg/mL in methanol, 10 min, 734 nm
Protocol: During the 2,2′-azino-bis(3-ethylbenzothiazoline-6-sulphonic acid) (ABTS) assay, the discoloration of the initial color could be detected at 734 nm.
The ABTS radical tests were measured according to a modified method of Arnao et al.. The test solutions were dissolved in methanol (1 mg/mL) at ambient temperature. The radical cation of ABTS (ABTS^+•) was created by mixing 7 mmol/L solution of ABTS and 2.4 mmol/L solution of potassium persulphate, which were set to react for 14 h in the dark at room temperature. The working solutions consisted of 2 mL of the stock solution diluted in 50 mL of methanol with an absorbance of […] units at 734 nm. Then, 1 mL of the ABTS working solution was allowed to react with the title compounds for 10 min, with a subsequent absorbance determination. The inhibition percentages were evaluated by applying the same formula as the DPPH assay (4). ABTSscavenging activity = Abscontrol − Abssample/Abscontrol × 100%(4) where Abscontrol is the absorbance of the ABTS radical in methanol, and Abssample is the absorbance of the ABTS radical solution mixed with the sample.

[2] = MTT cell viability assay (cytotoxicity); format: cell-based, human; conditions: human, SH-SY5Y neuroblastoma cells, 1–500 μM, 24 h, MTT
Protocol: (§1) The effects of the newly synthesized N-pyrrolyl-hydrazone derivatives on the cellular viability of neuronal SH-SY5Y cells were evaluated, and the corresponding IC50 values were calculated. In the current study, the cells were seeded at density 2 × 10^4 and were treated with the test compounds at concentrations 1–500 μM for 24 h.
(§2) Human neuroblastoma cell line SH-SY5Y was purchased from European Collection of Cell Cultures (ECACC, Salisbury, UK). SH-SY5Y cells were cultivated in an RPMI 1640 medium supplemented with 10% heat-inactivated FBS, 2 mM L-glutamine, and 1% antibiotics (penicillin/streptomycin). The cell line was incubated at 37 °C with 5% of CO2, and the culture’s medium was replaced with a time interval of 2–3 days.
(§3) The SH-SY5Y cells were plated for 24 h at 37 °C on 96-well plates at a density of 2 × 10^4 cells per well to confluence. After 24 h, the cells were treated with the compounds (1–500 μM). MTT assay was performed to measure the metabolic activity in living cells. The mitochondria succinate dehydrogenase system of living cells metabolized yellow-colored, water-soluble, tetrazolium salt MTT (3-(4,5-dimethylthiazol2-yl)-2,5-diphenyltetrazolium bromide to a purple insoluble formazan crystal. The cells were incubated with the test solutions for 24 h, the MTT solution (10 mg/mL in PBS) was then added to each well, and the mixture was incubated at 37 °C for 3 h. Thereafter, the MTT solution was carefully aspirated, and the obtained formazan crystals were dissolved by the addition of […] DMSO. The cell viability was determined by measuring the optical density −570–690 nm in a multiplate reader Synergy 2 (BioTek Instruments, Inc., Highland Park, Winooski, VT, USA).

[3] = system: SH-SY5Y cells; assay: H2O2-induced oxidative stress model, protection by MTT; format: cell-based, human; conditions: H2O2 1 mM, 15 min; for protection at the lowest tested concentration (in words): 1 µM pre-incubation 90 min; for protective effect against H2O2-induced oxidative stress (in words): 1, 10, 20 µM pre-incubation 90 min
Protocol: The cells were pre-incubated with the tested compounds at concentrations 1, 10, and 20 µM for 90 min. Melatonin was used as a reference compound because of its well-established neuroprotective effects in various in vitro and in vivo models. After 90 min pre-incubation with the test substances, SH-SY5Y cells were exposed to H2O2 (1 mM, 15 min), as described in the Materials and Methods section.
as §2
For the H2O2-induced oxidative stress model, SH-SY5Y cells were seeded in 96-well plates at a density of 3.5 × 10^4/well in 100 μL for 24 h. Afterwards, the cell medium was aspirated, and the cells were treated with different concentrations of tested compounds (1, 10, 20 µM) for 90 min; then, the SH-SY5Y cells were washed with phosphate-buffered saline (PBS) and were exposed to the oxidative stress (H2O2 1 mM in PBS, 15 min). The contents of all wells were changed with culture medium. After 24 h, the amount of attached viable cells was evaluated by MTT assay. Negative controls (cells without hydrogen peroxide treatment) were considered as 100% protection, and hydrogen-peroxide-treated cells as 0% protection.

[4] = DPPH radical scavenging assay; format: biochemical; conditions: 1 mg/mL in methanol, 30 min, 517 nm
Protocol: The 1,1-diphenyl-2-picrylhydrazyl (DPPH) radical scavenging activity of the newly synthesized derivatives was determined at one concentration—1 mg/mL. Trolox was used as a standard.
The scavenging assay of the title compounds against DPPH radical was carried out by the widely employed protocol of Brand-Williams et al.. Briefly, a single concentration of 1 mg/mL for each synthesized compound in methanol was obtained. Subsequent addition of 1 mL of the methanol solution of DPPH (1 mmol/L) was performed. The reaction mixtures were incubated in the dark for 30 min. The absorbance was measured at 517 nm. Three measurements were carried out for each sample; 6-Hydroxy-2,5,7,8- tetramethylchroman-2-carboxylic acid (Trolox) was applied as a standard. The percentage inhibition of the tested samples was calculated by the following Formula (3):DPPHscavenging activity = Abscontrol − Abssample/Abscontrol × 100%(3) where Abscontrol is the absorbance of the DPPH radical in methanol, and Abssample is the absorbance of the DPPH radical solution mixed with the sample.

[5] = system: SH-SY5Y cells; assay: MTT cell viability assay (cytotoxicity); format: cell-based, human
Protocol: as §1, §2, §3

Compound | radical scavenging effect (in words) [1] | IC50 at 24 h [2] | protection at the lowest tested concentration (in words) [3] | melting point | DPPH scavenging activity [4] | ABTS scavenging activity [1] | toxicity relative to 7d (times higher) ([5]; from IC50 values) | cytotoxicity (in words) ([5]; 24 h) | protective effect against H2O2-induced oxidative stress (in words) [3]
CCOC(=O)c1cc(-c2ccc(Br)cc2)n(CC(=O)N/N=C/c2ccc(OC)cc2OC)c1C [7e, (E)-ethyl 5-(4-bromophenyl)-1-(2-(2-(2,4-dimethoxybenzylidene)hydrazinyl)-2-oxo-ethyl)-2-methyl-1H-pyrrole-3-carboxylate] | lack of radical scavenging effects | 63.1 µM | statistically significant protection | 206 to 207.6 °C | – | – | – | – | –
CCOC(=O)c1cc(-c2ccc(Br)cc2)n(CCC(=O)N/N=C/c2cc(OC)c(O)c(OC)c2)c1C [8d, (E)-ethyl 5-(4-bromophenyl)-1-(3-(2-(4-hydroxy-3,5-dimethoxybenzylidene) hydrazine-yl)-3-oxopropyl)-2-methyl-1H-pyrrole-3-carboxylate] | – | 57.3 µM | – | 196.6 to 197.6 °C | 19% | 89% | 1.7 times | – | –
Cc1c(C)c2c(c(C)c1O)CCC(C)(C(=O)O)O2 (stereo not drawn) [Trolox, 6-Hydroxy-2,5,7,8-tetramethylchroman-2-carboxylic acid, reference compound] | – | – | – | – | 94% | – | – | – | –
CCOC(=O)c1cc(-c2ccc(Br)cc2)n(CCC(=O)N/N=C/c2ccc(N(C)C)cc2)c1C [8a, (E)-ethyl 5-(4-bromophenyl)-1-(3-(2-(4-(dimethylamino)benzylidene)hydrazinyl)-3-oxopropyl)-2-methyl-1H-pyrrole-3-carboxylate] | – | 56.3 µM | – | 212 to 213.3 °C | – | 48% | – | – | –
CCOC(=O)c1cc(-c2ccc(Br)cc2)n(CC(=O)N/N=C/c2ccc([N+](=O)[O-])cc2)c1C [7c, (E)-ethyl 5-(4-bromophenyl)-2-methyl-1-(2-(2-(4-nitrobenzylidene)hydrazinyl)-2-oxo-ethyl)-1H-pyrrole-3-carboxylate] | – | > 500 µM | – | 245.9 to 247.2 °C | – | – | – | non-toxic | most potent protection; also recorded: stronger protective effects
CCOC(=O)c1cc(-c2ccc(Br)cc2)n(CC(=O)N/N=C/c2ccc(N(C)C)cc2)c1C [7a, (E)-ethyl 5-(4-bromophenyl)-1-(2-(2-(4-(dimethylamino)benzylidene)hydrazinyl)-2-oxoethyl)-2-methyl-1H-pyrrole-3-carboxylate] | – | 55.8 µM | – | 211.4 to 213.6 °C | – | 22% | – | – | –
CCOC(=O)c1cc(-c2ccc(Br)cc2)n(CCC(=O)N/N=C/c2ccc(Cl)cc2)c1C [8b, (E)-ethyl 5-(4-bromophenyl)-1-(3-(2-(4-chlorobenzylidene)hydrazinyl)-3-oxopropyl)-2-methyl-1H-pyrrole-3-carboxylate] | – | 57.4 µM | – | 181.4 to 184.6 °C | – | – | – | – | –
COc1ccc2[nH]cc(CCNC(C)=O)c2c1 [Melatonin, reference compound] | – | > 500 µM | – | – | – | – | – | – | dose-dependent protective effects
CCOC(=O)c1cc(-c2ccc(Br)cc2)n(CC(=O)N/N=C/c2cc(OC)c(O)c(OC)c2)c1C [7d, (E)-ethyl 5-(4-bromophenyl)-1-(2-(2-(4-hydroxy-3,5-dimethoxybenzylidene)hydrazine-yl)-2-oxoethyl)-2-methyl-1H-pyrrole-3-carboxylate] | – | 99.6 µM | statistically significant protection | 191.9 to 194.4 °C | 24% | 83% | – | – | better protection in all tested concentrations than the reference compound melatonin; also recorded: stronger protective effects
CCOC(=O)c1cc(-c2ccc(Br)cc2)n(CCC(=O)N/N=C/c2ccc([N+](=O)[O-])cc2)c1C [8c, (E)-ethyl 5-(4-bromophenyl)-2-methyl-1-(3-(2-(4-nitrobenzylidene)hydrazinyl)-3-oxopropyl)-1H-pyrrole-3-carboxylate] | – | 58.2 µM | – | 214.4 to 217.1 °C | – | – | – | – | –
CCOC(=O)c1cc(-c2ccc(Br)cc2)n(CCC(=O)N/N=C/c2ccc(OC)cc2OC)c1C [8e, (E)-ethyl 5-(4-bromophenyl)-1-(3-(2-(2,4-dimethoxybenzylidene)hydrazinyl)-3-oxopropyl)-2-methyl-1H-pyrrole-3-carboxylate] | lack of radical scavenging effects | 91.1 µM | – | 170 to 171.9 °C | – | – | – | – | lower antioxidant protection; also recorded: lower than melatonin
CCOC(=O)c1cc(-c2ccc(Br)cc2)n(CC(=O)N/N=C/c2ccc(Cl)cc2)c1C [7b, (E)-ethyl 5-(4-bromophenyl)-1-(2-(2-(4-chlorobenzylidene)hydrazinyl)-2-oxoethyl)-2-methyl-1h-pyrrole-3-carboxylate] | negligible effect | 67.6 µM | – | 229.4 to 231.2 °C | – | – | – | – | –

— article PMC10537553, “Synthesis, DFT Study, and In Vitro Evaluation of Antioxidant Properties and Cytotoxic and Cytoprotective Effects of New Hydrazones on SH-SY5Y Neuroblastoma Cell Lines” (Pharmaceuticals, 2023)
